{
  "source": "paper PMC6798376",
  "about": "“Production of galactitol from galactose by the oleaginous yeast Rhodosporidium toruloides IFO0880” (Biotechnology for Biofuels, 2019)",
  "key": {"[1]": {"target": "T1, AldR (aldose reductase; also printed AdhR) (Rhodotorula toruloides, UniProt A0A2S9ZVX5)", "T1 sequence (A0A2S9ZVX5 entry or part of it)": "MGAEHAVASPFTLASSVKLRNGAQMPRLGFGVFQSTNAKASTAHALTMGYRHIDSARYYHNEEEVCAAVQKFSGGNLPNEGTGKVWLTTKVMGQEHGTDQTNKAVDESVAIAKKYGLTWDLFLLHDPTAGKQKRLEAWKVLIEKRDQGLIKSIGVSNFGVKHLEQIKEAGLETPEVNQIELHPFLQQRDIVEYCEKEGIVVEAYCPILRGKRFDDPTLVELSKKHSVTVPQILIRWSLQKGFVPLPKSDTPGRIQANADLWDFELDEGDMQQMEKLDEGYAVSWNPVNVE", "experiment": "spectrophotometric NADPH assay at […] nm", "format": "biochemical", "conditions": "10 mM galactose as co-substrate; 20 mM Tris-HCl pH 7.0; 25 °C"}, "[2]": {"target": "T1, AldR (aldose reductase; also printed AdhR)", "experiment": "spectrophotometric NADPH assay at […] nm; product galactitol by HPLC", "format": "biochemical", "conditions": "NADPH as coenzyme; 10 mM galactose; 20 mM Tris-HCl pH 7.0; 25 °C"}},
  "data": [
    {"compound": "NC(=O)C1=CN([C@@H]2O[C@H](COP(=O)(O)OP(=O)(O)OC[C@H]3O[C@@H](n4cnc5c(N)ncnc54)[C@H](OP(=O)(O)O)[C@@H]3O)[C@@H](O)[C@H]2O)C=CC1", "note": "[NADPH]", "values": [
      {"measurement": "spectrophotometric NADPH assay at 340 nm", "setting": "[1]", "result": "AldR is an NADPH-dependent enzyme, like other galactose reductases"}
    ]},
    {"compound": "OC[C@H]1OC(O)[C@H](O)[C@@H](O)[C@H]1O", "note": "(some centres unmarked) [galactose]", "values": [
      {"measurement": "spectrophotometric NADPH assay at 340 nm; product galactitol by HPLC", "setting": "[2]", "result": "The recombinant enzyme exhibited activity against galactose with NADPH as the coenzyme"}
    ]}
  ]
}
